Measurements as given in ChEMBL document CHEMBL4308841, “Synthesis, in vitro antiproliferative activity, and kinase inhibitory effects of pyrazole-containing diarylureas and diarylamides” (Eur J Med Chem, 2018).

Tests used:
SF-295 = assay: Growth inhibition of human SF295 cells assessed as cell growth at 100 uM incubated for 48 hrs by sulforhodamine B assay relative to control; assay type: functional; conditions: SF-295, 48 h, read-out: Activity
Malme-3M = assay: Growth inhibition of human MALME-3M cells assessed as cell growth at 1 uM incubated for 48 hrs by sulforhodamine B assay relative to control; assay type: functional; conditions: read-out: Activity
CAKI-1 = assay: Growth inhibition of human Caki1 cells incubated for 48 hrs by sulforhodamine B assay; assay type: functional, cell-based; conditions: CAKI-1, 48 h
HOP-62 [1] = assay: Growth inhibition of human HOP62 cells assessed as cell growth at 100 uM incubated for 48 hrs by sulforhodamine B assay relative to control; assay type: functional; conditions: HOP-62, 48 h, read-out: Activity
HCC 2998 = assay: Growth inhibition of human HCC2998 cells assessed as cell growth at 0.1 uM incubated for 48 hrs by sulforhodamine B assay relative to control; assay type: functional; conditions: HCC 2998, 48 h, read-out: Activity
K562 = assay: Growth inhibition of human K562 cells assessed as cell growth at 1 uM incubated for 48 hrs by sulforhodamine B assay relative to control; assay type: functional; conditions: K562, 48 h, read-out: Activity
SF-539 = assay: Growth inhibition of human SF539 cells assessed as cell growth at 1 uM incubated for 48 hrs by sulforhodamine B assay relative to control; assay type: functional; conditions: SF-539, 48 h, read-out: Activity
HT-29 = assay: Growth inhibition of human HT-29 cells assessed as cell growth at 1 uM incubated for 48 hrs by sulforhodamine B assay relative to control; assay type: functional; conditions: HT-29, 48 h, read-out: Activity
M14 = assay: Growth inhibition of human M14 cells incubated for 48 hrs by sulforhodamine B assay; assay type: functional, cell-based; conditions: M14, 48 h
NCI-H23 = assay: Growth inhibition of human NCI-H23 cells assessed as cell growth at 1 uM incubated for 48 hrs by sulforhodamine B assay relative to control; assay type: functional; conditions: NCI-H23, 48 h, read-out: Activity
HOP-62 [2] = assay: Growth inhibition of human HOP62 cells assessed as cell growth at 0.01 uM incubated for 48 hrs by sulforhodamine B assay relative to control; assay type: functional; conditions: HOP-62, 48 h, read-out: Activity
UACC-257 = assay: Growth inhibition of human UACC257 cells assessed as cell growth at 1 uM incubated for 48 hrs by sulforhodamine B assay relative to control; assay type: functional; conditions: UACC-257, 48 h, read-out: Activity
LOX IMVI = assay: Growth inhibition of human LOXIMVI cells incubated for 48 hrs by sulforhodamine B assay; assay type: functional
SK-MEL-5 = assay: Growth inhibition of human SK-MEL-5 cells incubated for 48 hrs by sulforhodamine B assay; assay type: functional, cell-based; conditions: SK-MEL-5, 48 h
MDA-MB-231 [3] = assay: Growth inhibition of human MDA-MB-231 cells assessed as cell growth at 0.01 uM incubated for 48 hrs by sulforhodamine B assay relative to control; assay type: functional; conditions: MDA-MB-231, 48 h, read-out: Activity
MDA-MB-231 [4] = assay: Growth inhibition of human MDA-MB-231 cells assessed as cell growth at 0.1 uM incubated for 48 hrs by sulforhodamine B assay relative to control; assay type: functional; conditions: MDA-MB-231, 48 h, read-out: Activity
SNB-19 = assay: Growth inhibition of human SNB19 cells assessed as cell growth at 0.01 uM incubated for 48 hrs by sulforhodamine B assay relative to control; assay type: functional; conditions: SNB-19, 48 h, read-out: Activity
SR [5] = assay: Growth inhibition of human SR cells incubated for 48 hrs by sulforhodamine B assay; assay type: functional, cell-based
MDA-MB-435 = assay: Growth inhibition of human MDA-MB-435 cells assessed as cell growth at 100 uM incubated for 48 hrs by sulforhodamine B assay relative to control; assay type: functional; conditions: MDA-MB-435, 48 h, read-out: Activity
U-251 = assay: Growth inhibition of human U251 cells assessed as cell growth at 0.01 uM incubated for 48 hrs by sulforhodamine B assay relative to control; assay type: functional; conditions: U-251, 48 h, read-out: Activity
SR [6] = assay: Growth inhibition of human SR cells assessed as cell growth at 100 uM incubated for 48 hrs by sulforhodamine B assay relative to control; assay type: functional; conditions: read-out: Activity
OVCAR-5 = assay: Growth inhibition of human OVCAR5 cells assessed as cell growth at 0.1 uM incubated for 48 hrs by sulforhodamine B assay relative to control; assay type: functional; conditions: OVCAR-5, 48 h, read-out: Activity
ACHN = assay: Growth inhibition of human ACHN cells incubated for 48 hrs by sulforhodamine B assay; assay type: functional, cell-based
MOLT-4 = assay: Growth inhibition of human MOLT4 cells assessed as cell growth at 100 uM incubated for 48 hrs by sulforhodamine B assay relative to control; assay type: functional; conditions: MOLT-4, 48 h, read-out: Activity
IGROV-1 = assay: Growth inhibition of human IGROV1 cells incubated for 48 hrs by sulforhodamine B assay; assay type: functional, cell-based; conditions: IGROV-1, 48 h
HL-60(TB) = assay: Growth inhibition of human HL-60(TB) cells incubated for 48 hrs by sulforhodamine B assay; assay type: functional, cell-based; conditions: HL-60, 48 h
OVCAR-8 = assay: Growth inhibition of human OVCAR8 cells assessed as cell growth at 100 uM incubated for 48 hrs by sulforhodamine B assay relative to control; assay type: functional; conditions: OVCAR-8, 48 h, read-out: Activity
[7] = read-out: LC50 (the source's name)
[8] = read-out: pLC50 (the source's name) (converted)

O=C(Nc1cccc(-n2cc(-c3ccncc3)c(-c3cc(O)cc(Cl)c3)n2)c1)c1cc(C(F)(F)F)cc(C(F)(F)F)c1
growth at 100 µM (SF-295): -38%
growth at 1 µM (Malme-3M): 59%
GI50 (CAKI-1; read-out: GI50): 3.57 µM
CC50 (CAKI-1; [7]): > 100 µM
TGI (CAKI-1; read-out: TGI): > 100 µM
GI50 (CAKI-1; read-out: pGI50 (converted)): 3.63 µM
CC50 (CAKI-1; [8]): > 100 µM
TGI (CAKI-1; read-out: pTGI (converted)): > 100 µM
growth at 100 µM (HOP-62 [1]): 14%
growth at 0.1 µM (HCC 2998): 95%
growth at 1 µM (K562): 85%
growth at 1 µM (SF-539): 91%
growth at 1 µM (HT-29): 79%
GI50 (M14; read-out: GI50): 3.01 µM
CC50 (M14; [7]): > 100 µM
TGI (M14; read-out: TGI): > 100 µM
GI50 (M14; read-out: pGI50 (converted)): 3.02 µM
CC50 (M14; [8]): > 100 µM
TGI (M14; read-out: pTGI (converted)): > 100 µM
growth at 1 µM (NCI-H23): 98%
growth at 0.01 µM (HOP-62 [2]): 103%
growth at 1 µM (UACC-257): 92%
GI50 (LOX IMVI; read-out: GI50): 3.29 µM
CC50 (LOX IMVI; [7]): > 100 µM
TGI (LOX IMVI; read-out: TGI): 13.7 µM
GI50 (LOX IMVI; read-out: pGI50 (converted)): 3.31 µM
CC50 (LOX IMVI; [8]): > 100 µM
TGI (LOX IMVI; read-out: pTGI (converted)): 13.8 µM
GI50 (SK-MEL-5; read-out: GI50): 2.51 µM
CC50 (SK-MEL-5; [7]): > 100 µM
TGI (SK-MEL-5; read-out: TGI): 86.7 µM
GI50 (SK-MEL-5; read-out: pGI50 (converted)): 2.63 µM
CC50 (SK-MEL-5; [8]): > 100 µM
TGI (SK-MEL-5; read-out: pTGI (converted)): 8.91 µM
growth at 0.01 µM (MDA-MB-231 [3]): 98%
growth at 0.1 µM (MDA-MB-231 [4]): 94%
growth at 0.01 µM (SNB-19): 97%
GI50 (SR [5]; read-out: GI50): 1.51 µM
CC50 (SR [5]; [7]): > 100 µM
TGI (SR [5]; read-out: TGI): 50.1 µM
GI50 (SR [5]; read-out: pGI50 (converted)): 1.62 µM
CC50 (SR [5]; [8]): > 100 µM
TGI (SR [5]; read-out: pTGI (converted)): 5.01 µM
growth at 100 µM (MDA-MB-435): 3%
growth at 0.01 µM (U-251): 96%
growth at 100 µM (SR [6]): -18%
growth at 0.1 µM (OVCAR-5): 54%
GI50 (ACHN; read-out: GI50): 4.96 µM
CC50 (ACHN; [7]): > 100 µM
TGI (ACHN; read-out: TGI): > 100 µM
GI50 (ACHN; read-out: pGI50 (converted)): 5.01 µM
CC50 (ACHN; [8]): > 100 µM
TGI (ACHN; read-out: pTGI (converted)): > 100 µM
growth at 100 µM (MOLT-4): 3%
GI50 (IGROV-1; read-out: GI50): 7.96 µM
CC50 (IGROV-1; [7]): > 100 µM
TGI (IGROV-1; read-out: TGI): > 100 µM
GI50 (IGROV-1; read-out: pGI50 (converted)): 7.94 µM
CC50 (IGROV-1; [8]): > 100 µM
TGI (IGROV-1; read-out: pTGI (converted)): > 100 µM

O=C(Nc1cccc(-n2cc(-c3ccncc3)c(-c3cc(O)cc(Cl)c3)n2)c1)Nc1ccc(Cl)c(Cl)c1
growth at 100 µM (SF-295): -58%
growth at 1 µM (Malme-3M): 76%
GI50 (CAKI-1; read-out: GI50): 2.21 µM
CC50 (CAKI-1; [7]): > 100 µM
TGI (CAKI-1; read-out: TGI): 70.1 µM
GI50 (CAKI-1; read-out: pGI50 (converted)): 2.19 µM
CC50 (CAKI-1; [8]): > 100 µM
TGI (CAKI-1; read-out: pTGI (converted)): 7.08 µM
growth at 100 µM (HOP-62 [1]): -3%
growth at 0.1 µM (HCC 2998): 110%
growth at 1 µM (K562): 83%
growth at 1 µM (SF-539): 72%
growth at 1 µM (HT-29): 96%
GI50 (M14; read-out: GI50): 1.44 µM
CC50 (M14; [7]): 7.44 µM
TGI (M14; read-out: TGI): 32.8 µM
GI50 (M14; read-out: pGI50 (converted)): 1.45 µM
CC50 (M14; [8]): 7.41 µM
TGI (M14; read-out: pTGI (converted)): 3.31 µM
growth at 1 µM (NCI-H23): 96%
GI50 (HL-60(TB); read-out: GI50): 3.02 µM
LC50 (HL-60(TB); read-out: LC50): > 100 µM
GI50 (HL-60(TB); read-out: pGI50 (converted)): 3.02 µM
LC50 (HL-60(TB); read-out: pLC50 (converted)): > 100 µM
growth at 0.01 µM (HOP-62 [2]): 105%
growth at 1 µM (UACC-257): 92%
GI50 (LOX IMVI; read-out: GI50): 1.56 µM
TGI (LOX IMVI; read-out: TGI): 41 µM
GI50 (LOX IMVI; read-out: pGI50 (converted)): 1.86 µM
TGI (LOX IMVI; read-out: pTGI (converted)): 4.17 µM
GI50 (SK-MEL-5; read-out: GI50): 1.52 µM
CC50 (SK-MEL-5; [7]): 5.75 µM
TGI (SK-MEL-5; read-out: TGI): 30.4 µM
GI50 (SK-MEL-5; read-out: pGI50 (converted)): 1.62 µM
CC50 (SK-MEL-5; [8]): 5.75 µM
TGI (SK-MEL-5; read-out: pTGI (converted)): 3.02 µM
growth at 0.01 µM (MDA-MB-231 [3]): 94%
growth at 0.1 µM (MDA-MB-231 [4]): 85%
growth at 0.01 µM (SNB-19): 97%
GI50 (SR [5]; read-out: GI50): 1.3 µM
CC50 (SR [5]; [7]): > 100 µM
TGI (SR [5]; read-out: TGI): 42.4 µM
GI50 (SR [5]; read-out: pGI50 (converted)): 1.32 µM
CC50 (SR [5]; [8]): > 100 µM
TGI (SR [5]; read-out: pTGI (converted)): 4.27 µM
growth at 100 µM (MDA-MB-435): -45%
growth at 100 µM (OVCAR-8): -38%
growth at 0.01 µM (U-251): 96%
growth at 100 µM (SR [6]): -30%
growth at 0.1 µM (OVCAR-5): 90%
GI50 (ACHN; read-out: GI50): 2.21 µM
CC50 (ACHN; [7]): > 100 µM
TGI (ACHN; read-out: TGI): 67.1 µM
GI50 (ACHN; read-out: pGI50 (converted)): 2.19 µM
CC50 (ACHN; [8]): > 100 µM
TGI (ACHN; read-out: pTGI (converted)): 8.91 µM
growth at 100 µM (MOLT-4): -10%
GI50 (IGROV-1; read-out: GI50): 2.56 µM
CC50 (IGROV-1; [7]): > 100 µM
TGI (IGROV-1; read-out: TGI): 92.3 µM
GI50 (IGROV-1; read-out: pGI50 (converted)): 2.88 µM
CC50 (IGROV-1; [8]): > 100 µM
TGI (IGROV-1; read-out: pTGI (converted)): 9.33 µM
